This passage reports EC50 results from paper PMC5913971, “A Novel Piperazine-Based Drug Lead for Cryptosporidiosis from the Medicines for Malaria Venture Open-Access Malaria Box” (Antimicrobial Agents and Chemotherapy, 2018).

In one experiment the test system is C. parvum Iowa isolate. Kind of experiment: Immunofluorescence assay for C. parvum growth inhibition in HCT-8 cells. The format is cell-based, Cryptosporidium parvum. As to conditions: Cryptosporidium parvum, HCT-8, read-out: C. parvum EC50 (95% CI). How it is done:
Inhibition of C. parvum growth was measured as described previously ([20]). Oocysts were excysted by treatment with 10 mM hydrochloric acid (10 min at 37°C), followed by exposure to 2 mM sodium taurocholate (Sigma-Aldrich) in PBS for 10 min at 16°C. Excysted oocysts were then added to >95% confluent HCT-8 cell monolayers in 384-well plates at a concentration of 5,500 Iowa isolate oocysts per well. For C. parvum field isolates, the inoculum required to yield an infection level similar to that produced by 5,500 Iowa isolate oocysts per well was determined and was used for subsequent assays of parasite inhibition. Compounds were added just before or 3 h after infection, and assay plates were incubated for 48 h postinfection at 37°C under 5% CO2. Wells were then washed three times with PBS containing 111 mM D-galactose, fixed with 4% paraformaldehyde in PBS for 15 min at room temperature, permeabilized with 0.25% Triton X-100 for 10 min at 37°C, washed three times with PBS with 0.1% Tween 20, and blocked with 4% bovine serum albumin (BSA) in PBS for 2 h at 37°C or 4°C overnight. Parasitophorous vacuoles were stained with 1.33 μg/ml of fluorescein-labeled Vicia villosa lectin (Vector Laboratories) diluted in 1% BSA in PBS with 0.1% Tween 20 for 1 h at 37°C, followed by the addition of Hoechst 33258 (AnaSpec) at a final concentration of 0.09 mM diluted in water for another 15 min at 37°C. Wells were then washed five times with PBS containing 0.1% Tween 20. A Nikon Eclipse TE2000 epifluorescence microscope with an automated stage was programmed using NIS-Elements Advanced Research software (Nikon, USA) to focus on the center of each well and take a 3-by-3 composite image using an EXi Blue fluorescence microscopy camera (QImaging, Canada) with a 20× objective (numerical aperture, 0.45). Nucleus and parasite images were exported separately as .tif files and were analyzed using macros developed on the ImageJ platform (National Institutes of Health) ([20]). The only modification from the published macro used to count parasites was that the lower size threshold for parasites was decreased from 16.5 to 4 pixels (1 pixel = 0.65 μm). Graphs were plotted, and half-maximal effective concentration (EC50) and 90% effective concentration (EC90) values were calculated using GraphPad Prism software, version 6.01. For every C. parvum field isolate experiment, a dose-response experiment against the C. parvum Iowa isolate was performed simultaneously as a reference.
As to `c1cc2nncn2nc1N1CCNCC1` [Compound D-53, N1CCN(CC1)c1ccc2n(n1)cnn2], the 50% effective concentration (EC50) (in general, the midpoint of the concentration-response curve) was more than 25 µM.

The same experiment, now with this note: Cryptosporidium parvum, HCT-8; Table S1, confirmed screening hits; read-out: C. parvum EC50 (95% CI).
Take `Cc1cc(=O)oc2c1ccc1oc(C(=O)c3ccccc3)c(C)c12` [MMV006753, CC1=CC(=O)Oc2c1ccc3oc(C(=O)c4ccccc4)c(C)c23]: the concentration giving a half-maximal response (EC50) turned out to be 0.25 µM.
Turning to `Oc1c(CN2CCN(c3ccccc3F)CC2)cc(Br)c2cccnc12` [MMV000760, Oc1c(CN2CCN(CC2)c3ccccc3F)cc(Br)c4cccnc14], the concentration for a half-maximal effect (EC50) came out at 0.29 µM.
Still for that read-out and setting: then `COc1cccc(Nc2nc(NCCO)c3ccccc3n2)c1` [MMV011944, n1c(NCCO)c2c(cccc2)nc1Nc3cccc(OC)c3], with 3.5 µM; and `Cc1ccnc(NC(c2cccc(OCc3ccccc3)c2)c2ccc3cccnc3c2O)c1` (stereo not shown) [MMV000720, Cc1ccnc(NC(c2cccc(OCc3ccccc3)c2)c4ccc5cccnc5c4O)c1], with 0.21 µM.
For the compound `O=C1c2ccc3c4c(ccc(c24)C(=O)N1CCCCO)C(=O)N(CCCCO)C3=O` [MMV009085, OCCCCN1C(=O)c2ccc3C(=O)N(CCCCO)C(=O)c4ccc(C1=O)c2c34], the EC50 amounted to 2.6 µM.

Still in this experiment, the particulars now being: Cryptosporidium parvum, HCT-8; Table S3, SAR of MMV665917; read-out: C. parvum EC50 (95% CI).
As to `Cc1nnc2ccc(N3CCN(C(=O)NCc4ccccc4)CC3)nn12` [Compound D-21, O=C(N1CCN(CC1)c1ccc2n(n1)c(C)nn2)NCc1ccccc1], the concentration giving a half-maximal response (EC50) is more than 25 µM.
For `O=C(c1ccc(S(=O)(=O)N2CCCC2)cc1)N1CCN(c2ccc3nncn3n2)CC1` [Compound D-48, O=C(c1ccc(cc1)S(=O)(=O)N1CCCC1)N1CCN(CC1)c1ccc2n(n1)cnn2], the EC50 is more than 25 µM.
As to `O=C(Nc1ccc(F)c(Cl)c1)N1CCN(c2ccc3nnc(C4CC4)n3n2)CC1` [Compound D-43, O=C(N1CCN(CC1)c1ccc2n(n1)c(nn2)C1CC1)Nc1ccc(c(c1)Cl)F], the EC50 is more than 25 µM.
For `COc1ccc(C)cc1NC(=O)N1CCN(c2ccc3nncn3n2)CC1` [Compound D-34, COc1ccc(cc1NC(=O)N1CCN(CC1)c1ccc2n(n1)cnn2)C], the EC50 is more than 25 µM.
The same measure, in the same setting: with `O=C(Nc1ccc2c(c1)OCO2)N1CCN(c2ccc3nncn3n2)CC1` [Compound D-19, O=C(N1CCN(CC1)c1ccc2n(n1)cnn2)Nc1ccc2c(c1)OCO2] the figure was more than 25 µM.
On the same count and under the same terms, then `FC(F)(F)c1nnc2ccc(N3CCN(Cc4ccccc4)CC3)nn12` [Compound D-3, FC(c1nnc2n1nc(cc2)N1CCN(CC1)Cc1ccccc1)(F)F], with more than 25 µM; and `COc1ccc(N2CCN(c3ccc4nncn4n3)CC2)cc1` [Compound D-31, COc1ccc(cc1)N1CCN(CC1)c1ccc2n(n1)cnn2], with more than 25 µM.
Same read-out and setting: with `O=C(Nc1ccc(Cl)c(Cl)c1)N1CCN(c2ccccc2)CC1` [Compound D-74, O=C(Nc1ccc(Cl)c(Cl)c1)N2CCN(CC2)c3ccccc3] the figure was 20 µM; with `CC(C)c1ccc(NC(=O)N2CCN(c3ccc4nncn4n3)CC2)cc1` [Compound D-36, O=C(N1CCN(CC1)c1ccc2n(n1)cnn2)Nc1ccc(cc1)C(C)C], more than 25 µM.
Take `O=C(COc1ccc(Cl)cc1Cl)N1CCN(c2ccc3nncn3n2)CC1` [Compound D-50, Clc1ccc(c(c1)Cl)OCC(=O)N1CCN(CC1)c1ccc2n(n1)cnn2]: the EC50 was found to be 16 µM.
On to `O=C(COc1cccc(Cl)c1)N1CCN(c2ccc3nncn3n2)CC1` [Compound D-41, Clc1cccc(c1)OCC(=O)N1CCN(CC1)c1ccc2n(n1)cnn2], for which the EC50 worked out at 18 µM.
Take `O=C(c1ccc(Cl)cc1)N1CCN(c2ccc3nncn3n2)CC1` [Compound D-46, Clc1ccc(cc1)C(=O)N1CCN(CC1)c1ccc2n(n1)cnn2]: the EC50 is more than 25 µM.
`O=C(Nc1ccc(C(F)(F)F)cc1)N1CCN(c2ccc3nncn3n2)CC1` [Compound D-75, FC(F)(F)c1ccc(cc1)NC(=O)N2CCN(CC2)c3ccc4nncn4n3]: the EC50 was 11 µM.
`CN(C)S(=O)(=O)c1ccc(C(=O)N2CCN(c3ccc4nncn4n3)CC2)cc1` [Compound D-44, O=C(c1ccc(cc1)S(=O)(=O)N(C)C)N1CCN(CC1)c1ccc2n(n1)cnn2]: the EC50 amounted to 7.1 µM.
Turning to `O=S(=O)(c1ccc(Cl)cc1)N1CCN(c2ccc3nncn3n2)CC1` [Compound D-23, Clc1ccc(cc1)S(=O)(=O)N1CCN(CC1)c1ccc2n(n1)cnn2], the EC50 is more than 25 µM.
Take `O=C(Nc1ccc(Cl)c(Cl)c1)N1CCN(c2ccc3nncn3n2)CC1` [Compound D-28, O=C(N1CCN(CC1)c1ccc2n(n1)cnn2)Nc1ccc(c(c1)Cl)Cl]: the EC50 was 0.55 µM.
Take `O=C(NC1CCCCC1)N1CCN(c2ccc3nnc(C4CC4)n3n2)CC1` [Compound D-22, O=C(N1CCN(CC1)c1ccc2n(n1)c(nn2)C1CC1)NC1CCCCC1]: the EC50 was more than 25 µM.
As for `O=C(Nc1cc(Cl)ccc1Cl)N1CCN(c2ccc3nncn3n2)CC1` [Compound D-32, Clc1ccc(c(c1)NC(=O)N1CCN(CC1)c1ccc2n(n1)cnn2)Cl], the EC50 was approximately 24.8 µM.
Take `O=C(Nc1ccccc1)N1CCN(c2ccc3nncn3n2)CC1` [Compound D-18, O=C(N1CCN(CC1)c1ccc2n(n1)cnn2)Nc1ccccc1]: the EC50 was more than 25 µM.
Take `Cc1nnc2ccc(N3CCN(C(=O)OC(C)(C)C)CC3)nn12` [Compound D-60, O=C(N1CCN(CC1)c1ccc2n(n1)c(C)nn2)OC(C)(C)C]: the EC50 was more than 25 µM.
On to `c1ccc(N2CCN(c3ccc4nncn4n3)CC2)cc1` [Compound D-9, c1ccc(cc1)N1CCN(CC1)c1ccc2n(n1)cnn2], for which the EC50 is more than 25 µM.
For `COc1cc(NC(=O)N2CCN(c3ccc4nncn4n3)CC2)cc(OC)c1` [Compound D-35, COc1cc(cc(c1)OC)NC(=O)N1CCN(CC1)c1ccc2n(n1)cnn2], the half-maximal effective concentration (EC50) was more than 25 µM.
`CC(=O)N1CCN(c2ccc3nnc(C(F)(F)F)n3n2)CC1` [Compound D-12, CC(=O)N1CCN(CC1)c1ccc2n(n1)c(nn2)C(F)(F)F]: the half-maximal effective concentration (EC50) is more than 25 µM.
In the case of `O=C(Nc1cccc(Cl)c1)N1CCN(c2ccc3nncn3n2)CC1` [Compound D-77, Clc1cccc(c1)NC(=O)N2CCN(CC2)c3ccc4nncn4n3], the EC50 is approximately 23.7 µM.
For `O=C(c1cc(Cl)ccc1Cl)N1CCN(c2ccc3nncn3n2)CC1` [Compound D-47, Clc1ccc(c(c1)C(=O)N1CCN(CC1)c1ccc2n(n1)cnn2)Cl], the EC50 is more than 25 µM.
Same read-out and setting: with `O=C(c1ccc(F)cc1)N1CCN(c2ccc3nnc(C4CC4)n3n2)CC1` [Compound D-29, Fc1ccc(cc1)C(=O)N1CCN(CC1)c1ccc2n(n1)c(nn2)C1CC1] the figure was more than 25 µM.
Consider `NS(=O)(=O)c1ccc(C(=O)N2CCN(c3ccc4nncn4n3)CC2)cc1` [Compound D-45, O=C(c1ccc(cc1)S(=O)(=O)N)N1CCN(CC1)c1ccc2n(n1)cnn2], for which the EC50 is more than 25 µM.
Turning to `O=C(Nc1cc(F)ccc1F)N1CCN(c2ccc3nncn3n2)CC1` [Compound D-37, Fc1ccc(c(c1)NC(=O)N1CCN(CC1)c1ccc2n(n1)cnn2)F], the EC50 was more than 25 µM.
In the case of `COc1ccc(OC)c(NC(=O)N2CCN(c3ccc4nncn4n3)CC2)c1` [Compound D-40, COc1ccc(cc1NC(=O)N1CCN(CC1)c1ccc2n(n1)cnn2)OC], the EC50 was more than 25 µM.
In the case of `O=C(COc1ccc(F)cc1)N1CCN(c2ccc3nncn3n2)CC1` [Compound D-26, Fc1ccc(cc1)OCC(=O)N1CCN(CC1)c1ccc2n(n1)cnn2], the EC50 is 20 µM.
In the case of `CCOc1ccccc1NC(=O)N1CCN(c2ccc3nncn3n2)CC1` [Compound D-33, CCOc1ccccc1NC(=O)N1CCN(CC1)c1ccc2n(n1)cnn2], the EC50 is more than 25 µM.
Turning to `CN1CCN(c2ccc3nnc(C(F)(F)F)n3n2)CC1` [Compound D-2, CN1CCN(CC1)c1ccc2n(n1)c(nn2)C(F)(F)F], the EC50 was more than 25 µM.
On to `O=C(Nc1cccc(C(F)(F)F)c1)N1CCN(c2ccc3nncn3n2)CC1` [Compound D-27, O=C(N1CCN(CC1)c1ccc2n(n1)cnn2)Nc1cccc(c1)C(F)(F)F], for which the EC50 was found to be 17 µM.
Consider `O=C(Nc1ccc(Cl)c(Cl)c1)N1CCN(CCn2cccn2)CC1` [Compound D-81, O=C(N1CCN(CCN2N=CC=C2)CC1)NC3=CC=C(Cl)C(Cl)=C3], for which the EC50 is more than 25 µM.
Consider `CC(Oc1ccc(Cl)cc1Cl)C(=O)N1CCN(c2ccc3nncn3n2)CC1` [Compound D-51, Clc1ccc(c(c1)Cl)OC(C(=O)N1CCN(CC1)c1ccc2n(n1)cnn2)C], for which the EC50 was more than 25 µM.

The same experiment, now with this note: Cryptosporidium parvum; inside HCT-8 cells, 48 h incubation; Fig. 1; read-out: EC50, anti-C. parvum dose response.
Turning to `O=C(COc1cccc(Cl)c1)N1CCN(c2ccc3nncn3n2)CC1` [Compound D-41, Clc1cccc(c1)OCC(=O)N1CCN(CC1)c1ccc2n(n1)cnn2], the EC50 was approximately 18 µM.

Staying with this experiment, now noted: Table S3, SAR of MMV665917; read-out: C. parvum EC50 (95% CI).
Take `O=C(Nc1ccc(Cl)cc1)N1CCN(c2ccc3nncn3n2)CC1` [Compound D-78, O=C(N1CCN(C2=NN3C(C=C2)=NN=C3)CC1)NC5=CC=C(Cl)C=C5]: the EC50 is more than 25 µM.
